The record followed here is patent US10150757B2, “Quinazolinone derivatives as PARP inhibitors” (Janssen Pharmaceutica NV, priority 2004, dated 2018).

In the experiment the target is T1, TANK-2 enzyme (Homo sapiens, UniProt Q9H2K2).
T1 construct: made in house
T1 sequence (Q9H2K2 1-1166): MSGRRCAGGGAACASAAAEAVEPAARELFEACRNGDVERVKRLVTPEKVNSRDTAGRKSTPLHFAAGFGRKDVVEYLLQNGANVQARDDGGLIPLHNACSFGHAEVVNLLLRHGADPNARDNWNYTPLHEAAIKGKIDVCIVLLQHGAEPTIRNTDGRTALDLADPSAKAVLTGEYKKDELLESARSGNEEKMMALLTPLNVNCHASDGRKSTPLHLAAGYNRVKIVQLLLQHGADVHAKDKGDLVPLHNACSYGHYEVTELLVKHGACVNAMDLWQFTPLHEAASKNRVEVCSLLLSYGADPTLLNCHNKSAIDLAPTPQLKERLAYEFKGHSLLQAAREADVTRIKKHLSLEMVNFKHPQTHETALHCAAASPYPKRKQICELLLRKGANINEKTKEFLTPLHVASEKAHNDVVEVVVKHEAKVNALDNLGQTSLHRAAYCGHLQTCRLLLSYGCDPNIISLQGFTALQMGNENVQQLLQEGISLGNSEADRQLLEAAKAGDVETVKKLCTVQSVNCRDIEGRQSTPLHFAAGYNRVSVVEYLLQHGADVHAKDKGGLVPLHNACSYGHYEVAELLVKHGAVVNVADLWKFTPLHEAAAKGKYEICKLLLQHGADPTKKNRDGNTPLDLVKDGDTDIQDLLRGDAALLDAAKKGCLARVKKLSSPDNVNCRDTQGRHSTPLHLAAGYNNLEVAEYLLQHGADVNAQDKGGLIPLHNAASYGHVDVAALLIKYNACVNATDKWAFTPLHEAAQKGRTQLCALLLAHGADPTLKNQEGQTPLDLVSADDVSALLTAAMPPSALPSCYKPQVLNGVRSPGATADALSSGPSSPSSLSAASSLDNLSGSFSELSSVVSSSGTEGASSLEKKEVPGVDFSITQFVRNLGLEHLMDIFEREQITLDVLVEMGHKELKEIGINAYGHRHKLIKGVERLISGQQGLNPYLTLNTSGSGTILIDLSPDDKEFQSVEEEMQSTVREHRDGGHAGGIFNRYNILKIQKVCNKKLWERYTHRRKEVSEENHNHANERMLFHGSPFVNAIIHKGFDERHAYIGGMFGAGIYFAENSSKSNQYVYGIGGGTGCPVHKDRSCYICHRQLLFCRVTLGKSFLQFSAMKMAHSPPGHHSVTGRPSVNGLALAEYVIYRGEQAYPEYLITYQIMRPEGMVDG
The experiment is described as follows: In vitro scintillation proximity assay (SPA) for TANK-2 inhibitory activity. Format: biochemical. The conditions noted are these: auto-poly(ADP-ribosyl)ation; 96-well plate results if available, otherwise 384-well; read-out: in vitro SPA assay TANK-2 pIC50 (converted). Here is the method: In Vitro Scintillation Proximity Assay (SPA) for TANK-2 Inhibitory Activity
Compounds of the present invention were tested in an in vitro assay based on SPA technology with Ni Flash plates (96 or 384 well).
In principle, the assay relies upon SPA technology for the detection of auto-poly(ADP-ribosyl)ation of TANK-2 protein using [^3H]-nicotinamide adenine dinucleotide ([^3H]-NAD^+) as ADP-ribosyl donor.
A stock solution of [^3H]-NAD^+/NAD was made by adding 64.6 μl of [^3H]-NAD^+ (0.1 mCi/ml, supplier: Perkin Elmer) and 46.7 μl NAD-stock (10.7 mM, stored at −20° C., supplier Roche) to 1888.7 μl assay buffer (60 mM Tris/HCl, pH 7.4; 0.9 mM DTT; 6 mM MgCl2). The TANK-2 enzyme was produced as described in EP1238063. 60 μl of assay buffer, together with 1 μl of compound in DMSO, 20 μl of [^3H]-NAD^+/NAD and 20 μl of TANK-2 enzyme (final concentration 6 μg/ml) was added per well into a 96-well Ni-coated flash plate (Perkin Elmer). After incubation of the mixture for 120 min. at room temperature, the reaction was terminated by adding 60 μl of stop solution (42.6 mg NAD in 6 ml H2O). The plates were covered with a plate sealer and placed in a TopCountNXT™ (Packard) for scintillation counting. Values were expressed as counts per minute (cpm). For each experiment, controls (containing TANK-2 enzyme and DMSO without compound), a blank incubation (containing DMSO but no TANK-2 enzyme or compound) and samples (containing TANK-2 enzyme and compound dissolved in DMSO) were run in parallel. All compounds tested were dissolved and eventually further diluted in DMSO. In first instance, compounds were tested at a concentration of 10^−5M. […] In each test, the blank value was subtracted from both the control and the sample values. The control sample represented maximal TANK-2 enzyme activity. For each sample, the amount of cpm was expressed as a percentage of the mean cpm value of the controls. When appropriate, IC50-values (concentration of the drug, needed to reduce the TANK-2 enzyme activity to 50% of the control) were computed using linear interpolation between the experimental points just above and below the 50% level. Herein the effects of test compounds are expressed as pIC50 (the negative log value of the IC50-value). As reference compounds, 3-aminobenzamide and 4-amino-1,8-naphthalimide were included to validate the SPA assay. Herein the assay was described using 96-well plates. In the assay using 384-well plates the same final concentrations were used and volumes were adapted.
A general note: Scintillation proximity formats need no separation of bound from free tracer.

Structures are written as SMILES. Where only a bound is given, the exact number is not on record here.

Regarding `O=c1[nH]c(NCCN2CCC(Nc3nc4ccccc4c(=O)[nH]3)CC2)nc2ccccc12` [Compound 30], the IC50 was 0.794 µM. As for `O=c1nc(NCCCN2CCC(Nc3nccc4ccccc34)CC2)[nH]c2ccccc12` [Compound 40], the IC50 was over 10 µM.

Consider `CCc1cc2cc(CN3CCN(CCNc4nc5ccccc5c(=O)[nH]4)CC3)ccc2nc1OC` [Compound 3], for which the IC50 was 1.77 µM. As for `O=c1[nH]c(NCCN2CCC(c3n[nH]c4cc(F)ccc34)CC2)nc2cc(Cl)ccc12` [Compound 31], the figure is over 10 µM. As for `CO[C@@H]1CN(CCCNc2nc(O)c3ccccc3n2)CCN1NC(=O)c1cc(Cl)c(N)c2c1OC(C)(C)C2` [Compound 8], the IC50 is over 10 µM. On to `Cc1ccc2nc(NCCN3CCC(c4n[nH]c5cc(F)ccc45)CC3)[nH]c(=O)c2c1` [Compound 37], for which the IC50 was over 10 µM. As for `CC1(C)Cc2c(N)c(Cl)cc(C(=O)NC3CCN(CCCCNc4nc(O)c5ccccc5n4)CC3)c2O1` [Compound 5], the IC50 is over 10 µM.

As for `O=c1[nH]c(NCCCN2CCN(c3nsc4ccccc34)CC2)nc2ccccc12` [Compound 24], the IC50 is over 10 µM. As for `O=c1[nH]c(NCCN2CCC(Nc3n[nH]c(=O)c4ccccc34)CC2)nc2ccccc12` [Compound 33], the IC50 was 0.938 µM. As to `O=c1[nH]c(NCCN2CCN(c3n[nH]c4ccccc34)CC2)nc2cc(Cl)ccc12` [Compound 44], the IC50 was over 10 µM. For `CO[C@H]1CN(CCCNc2nc3ccccc3c(=O)[nH]2)CC[C@H]1NC(=O)c1cc(Cl)cc2c1OC(C)(C)C2` [Compound 18], the IC50 is over 10 µM. As to `O=c1[nH]c(NCCN2CCN(c3n[nH]c4cc(F)ccc34)CC2)nc2ccccc12` [Compound 41], the IC50 was over 10 µM. As for `O=c1[nH]c(NCCN2CCC(c3n[nH]c4cc(F)ccc34)CC2)nc2ccc(Cl)cc12` [Compound 36], the figure is over 10 µM. For the compound `CCCCn1cc(C2CCN(CCCNc3nc4ccccc4c(=O)[nH]3)CC2)c2ccccc21` [Compound 28], the IC50 is over 10 µM. As to `Cc1cccc2nc(NCCN3CCN(c4n[nH]c5ccccc45)CC3)[nH]c(=O)c12` [Compound 39], the IC50 was over 10 µM. As for `O=c1[nH]c(NCCCN2CCC(O)(c3ccc(Cl)cc3)CC2)nc2ccccc12` [Compound 2], the figure is over 10 µM; as for `O=C(c1ccc(F)cc1)C1CCN(CCNc2nc3ccccc3c(=O)[nH]2)CC1` [Compound 46], over 10 µM; as for `O=c1[nH]c(NCCN2CCC(c3n[nH]c4cc(F)ccc34)CC2)nc2ccccc12` [Compound 21], over 10 µM. As to `Nc1c(Cl)cc(C(=O)NC2CCN(CCCNc3nc(O)c4ccccc4n3)CC2)c2c1CCO2` [Compound 45], the IC50 was over 10 µM.

Take `O=c1[nH]c(NCCCN2CCC(n3c(=O)[nH]c4ccccc43)CC2)nc2ccccc12` [Compound 29]: the IC50 is over 10 µM. Turning to `O=c1[nH]c(NCCCN2CCN(c3n[nH]c4ccccc34)CC2)nc2ccccc12` [Compound 22], the IC50 is 8.45 µM. As for `O=c1[nH]c(NCCCN2CCN(c3n[nH]c4cc(F)ccc34)CC2)nc2ccccc12` [Compound 27], the IC50 was 7.96 µM. Regarding `O=c1[nH]c(NCCCN2CCC(c3noc4cc(F)ccc34)CC2)nc2ccccc12` [Compound 26], the IC50 is over 10 µM. For the compound `CC1(C)Cc2c(N)c(Cl)cc(C(=O)NC3CCN(CCCNc4nc(O)c5ccccc5n4)CC3)c2O1` [Compound 4], the IC50 is over 10 µM. Turning to `CO[C@@H]1CN(CCCNc2nc(O)c3ccccc3n2)CC[C@@H]1NC(=O)c1cc(Cl)c(N)c2c1OCCC2` [Compound 6], the IC50 was over 10 µM.

Turning to `O=c1[nH]c(NCCCN2CCC(c3n[nH]c4cc(F)ccc34)CC2)nc2ccccc12` [Compound 25], the IC50 is over 10 µM. With `O=c1[nH]c(NCCCN2CCC(Nc3cccc4ccccc34)CC2)nc2ccccc12` [Compound 42] the figure was over 10 µM. `Nc1c(Cl)cc(C(=O)OCC2CCN(CCNc3nc4ccccc4c(=O)[nH]3)CC2)c2c1OCCO2` [Compound 7]: the IC50 is 0.746 µM. Consider `O=C(NC1CCN(CCCNc2nc3ccccc3c(=O)[nH]2)CC1)c1ccccc1` [Compound 23], for which the IC50 is over 10 µM. Consider `O=c1[nH]c(NCCN2CCN(c3nc4ccccc4c(=O)[nH]3)CC2)nc2ccccc12` [Compound 38], for which the IC50 is 0.537 µM. Regarding `Cc1ccc2nc(NCCN3CCN(c4n[nH]c5ccccc45)CC3)[nH]c(=O)c2c1` [Compound 43], the IC50 is over 10 µM. As for `O=c1[nH]c(NCCCN2CCC(c3c[nH]c4ccccc34)CC2)nc2ccccc12` [Compound 20], the IC50 is over 10 µM. Turning to `O=c1[nH]c(NCCN2CCN(c3n[nH]c4ccccc34)CC2)nc2ccc(Cl)cc12` [Compound 1], the IC50 is over 10 µM.
